From ChEMBL document CHEMBL3885861, “Open TG-GATES”

Species: Rattus norvegicus
Assay: Open TG-GATES - Regimen: Daily Repeat
Assay type: toxicity, organism-based, Sprague-Dawley
Design: regimen Daily Repeat, gender Male, age 6 weeks
Details: in vivo, po, 300 mg/kg, route gavage, dose level High; for APTT / Bas / Eos / Fbg / Hb / Ht / Lym / MCH / MCHC / MCV / Mono / Neu / PT / Plat / RBC / Ret / WBC: tissue Blood; for KIDNEY_L / KIDNEY_R / KIDNEY_TOTAL: tissue Kidney; for LIVER: tissue Liver; for A/G / ALP / ALT / AST / BUN / CRE / Ca / Cl / DBIL / GLC / IP / K / LDH / Na / PL / RALB / TBIL / TC / TG / TP / gamma-GTP: tissue Plasma

O=C(O)COc1nn(Cc2ccccc2)c2ccccc12 [BENDAZAC]
TERMINAL_BW (72 h, time 3 day): 223.3 g
APTT (72 h, time 3 day): 19 s
Bas (72 h, time 3 day): 0%
Eos (72 h, time 3 day): 0.8%
Fbg (72 h, time 3 day): 218 mg/dL
Hb (72 h, time 3 day): 14.2 g/dL
Ht (72 h, time 3 day): 42%
Lym (72 h, time 3 day): 75.2%
MCH (72 h, time 3 day): 21.6 pg
MCHC (72 h, time 3 day): 33.7%
MCV (72 h, time 3 day): 64.2 fL
Mono (72 h, time 3 day): 9.2%
Neu (72 h, time 3 day): 14.4%
PT (72 h, time 3 day): 12.3 s
Plat (72 h, time 3 day): 133.3 x10_4/uL
RBC (72 h, time 3 day): 655.2 x10_4/ul
Ret (72 h, time 3 day): 6.2%
WBC (72 h, time 3 day): 109.6 x10_2/uL
KIDNEY_L (72 h, time 3 day): 1 g
KIDNEY_R (72 h, time 3 day): 1.1 g
KIDNEY_TOTAL (72 h, time 3 day): 2.1 g
LIVER (72 h, time 3 day): 13.4 g
A/G (72 h, time 3 day): 2.3
ALP (72 h, time 3 day): 1088.6 IU/L
ALT (72 h, time 3 day): 44.4 IU/L
AST (72 h, time 3 day): 75.8 IU/L
BUN (72 h, time 3 day): 17.4 mg/dL
CRE (72 h, time 3 day): 0.6 mg/dL
Ca (72 h, time 3 day): 10.8 mg/dL
Cl (72 h, time 3 day): 103.6 meq/L
DBIL (72 h, time 3 day): 0.076 mg/dL
GLC (72 h, time 3 day): 192.6 mg/dL
IP (72 h, time 3 day): 5.8 mg/dL
K (72 h, time 3 day): 4.4 meq/L
LDH (72 h, time 3 day): 141.8 IU/L
Na (72 h, time 3 day): 140.4 meq/L
PL (72 h, time 3 day): 131 mg/dL
RALB (72 h, time 3 day): 3.8 g/dL
TBIL (72 h, time 3 day): 0.8 mg/dL
TC (72 h, time 3 day): 66.2 mg/dL
TG (72 h, time 3 day): 68.8 mg/dL
TP (72 h, time 3 day): 5.5 g/dL
gamma-GTP (72 h, time 3 day): 1.2 IU/L
TERMINAL_BW ([…], time 7 day): 261 g
TERMINAL_BW ([…], time 14 day): 307.2 g
TERMINAL_BW ([…], time 28 day): 410 g
APTT ([…], time 7 day): 20.2 s
Bas ([…], time 7 day): 0%
Eos ([…], time 7 day): 0.8%
Fbg ([…], time 7 day): 207.6 mg/dL
Hb ([…], time 7 day): 13.8 g/dL
Ht ([…], time 7 day): 40.6%
Lym ([…], time 7 day): 83%
MCH ([…], time 7 day): 21.5 pg
MCHC ([…], time 7 day): 34%
MCV ([…], time 7 day): 63.3 fL
Mono ([…], time 7 day): 5.2%
Neu ([…], time 7 day): 11.4%
PT ([…], time 7 day): 12.6 s
Plat ([…], time 7 day): 132.2 x10_4/uL
RBC ([…], time 7 day): 641.6 x10_4/ul
Ret ([…], time 7 day): 6.1%
WBC ([…], time 7 day): 123 x10_2/uL
APTT ([…], time 14 day): 18.9 s
Bas ([…], time 14 day): 0%
Eos ([…], time 14 day): 0.6%
Fbg ([…], time 14 day): 213.6 mg/dL
Hb ([…], time 14 day): 14.7 g/dL
Ht ([…], time 14 day): 43%
Lym ([…], time 14 day): 83%
MCH ([…], time 14 day): 20.9 pg
MCHC ([…], time 14 day): 34%
MCV ([…], time 14 day): 61.3 fL
Mono ([…], time 14 day): 5.6%
Neu ([…], time 14 day): 10.8%
PT ([…], time 14 day): 11.7 s
Plat ([…], time 14 day): 128.4 x10_4/uL
RBC ([…], time 14 day): 702.2 x10_4/ul
Ret ([…], time 14 day): 3%
WBC ([…], time 14 day): 117.7 x10_2/uL
APTT ([…], time 28 day): 21 s
Bas ([…], time 28 day): 0%
Eos ([…], time 28 day): 1%
Fbg ([…], time 28 day): 216.5 mg/dL
Hb ([…], time 28 day): 14.8 g/dL
Ht ([…], time 28 day): 43.9%
Lym ([…], time 28 day): 83.2%
MCH ([…], time 28 day): 19.5 pg
MCHC ([…], time 28 day): 33.8%
MCV ([…], time 28 day): 57.8 fL
Mono ([…], time 28 day): 5.5%
Neu ([…], time 28 day): 10.8%
PT ([…], time 28 day): 13.5 s
Plat ([…], time 28 day): 114.5 x10_4/uL
RBC ([…], time 28 day): 760.5 x10_4/ul
Ret ([…], time 28 day): 3.2%
WBC ([…], time 28 day): 142.5 x10_2/uL
KIDNEY_L ([…], time 7 day): 1.2 g
KIDNEY_R ([…], time 7 day): 1.2 g
KIDNEY_TOTAL ([…], time 7 day): 2.3 g
KIDNEY_L ([…], time 14 day): 1.2 g
KIDNEY_R ([…], time 14 day): 1.2 g
KIDNEY_TOTAL ([…], time 14 day): 2.5 g
KIDNEY_L ([…], time 28 day): 1.6 g
KIDNEY_R ([…], time 28 day): 1.6 g
KIDNEY_TOTAL ([…], time 28 day): 3.2 g
LIVER ([…], time 7 day): 14.9 g
LIVER ([…], time 14 day): 17 g
LIVER ([…], time 28 day): 21.1 g
A/G ([…], time 7 day): 2
ALP ([…], time 7 day): 1331.4 IU/L
ALT ([…], time 7 day): 37 IU/L
AST ([…], time 7 day): 67.6 IU/L
BUN ([…], time 7 day): 19.6 mg/dL
CRE ([…], time 7 day): 0.5 mg/dL
Ca ([…], time 7 day): 11.1 mg/dL
Cl ([…], time 7 day): 105 meq/L
DBIL ([…], time 7 day): 0.022 mg/dL
GLC ([…], time 7 day): 196.8 mg/dL
IP ([…], time 7 day): 5.8 mg/dL
K ([…], time 7 day): 4.4 meq/L
LDH ([…], time 7 day): 115.8 IU/L
Na ([…], time 7 day): 141 meq/L
PL ([…], time 7 day): 121 mg/dL
RALB ([…], time 7 day): 3.8 g/dL
TBIL ([…], time 7 day): 0.8 mg/dL
TC ([…], time 7 day): 63.6 mg/dL
TG ([…], time 7 day): 55.2 mg/dL
TP ([…], time 7 day): 5.7 g/dL
gamma-GTP ([…], time 7 day): 1 IU/L
A/G ([…], time 14 day): 1.9
ALP ([…], time 14 day): 903.6 IU/L
ALT ([…], time 14 day): 36.6 IU/L
AST ([…], time 14 day): 60.8 IU/L
BUN ([…], time 14 day): 20.4 mg/dL
CRE ([…], time 14 day): 0.5 mg/dL
Ca ([…], time 14 day): 10.3 mg/dL
Cl ([…], time 14 day): 105.2 meq/L
DBIL ([…], time 14 day): 0.024 mg/dL
GLC ([…], time 14 day): 185.6 mg/dL
IP ([…], time 14 day): 5.3 mg/dL
K ([…], time 14 day): 4.2 meq/L
LDH ([…], time 14 day): 105.6 IU/L
Na ([…], time 14 day): 140.8 meq/L
PL ([…], time 14 day): 130.2 mg/dL
RALB ([…], time 14 day): 3.9 g/dL
TBIL ([…], time 14 day): 0.7 mg/dL
TC ([…], time 14 day): 62.4 mg/dL
TG ([…], time 14 day): 79.4 mg/dL
TP ([…], time 14 day): 6.1 g/dL
gamma-GTP ([…], time 14 day): 1.4 IU/L
A/G ([…], time 28 day): 1.6
ALP ([…], time 28 day): 768 IU/L
ALT ([…], time 28 day): 34 IU/L
AST ([…], time 28 day): 57 IU/L
BUN ([…], time 28 day): 20.2 mg/dL
CRE ([…], time 28 day): 0.6 mg/dL
Ca ([…], time 28 day): 9.9 mg/dL
Cl ([…], time 28 day): 103 meq/L
DBIL ([…], time 28 day): 0.0525 mg/dL
GLC ([…], time 28 day): 187 mg/dL
IP ([…], time 28 day): 5 mg/dL
K ([…], time 28 day): 4 meq/L
LDH ([…], time 28 day): 72 IU/L
Na ([…], time 28 day): 140 meq/L
PL ([…], time 28 day): 117 mg/dL
RALB ([…], time 28 day): 3.7 g/dL
TBIL ([…], time 28 day): 0.9 mg/dL
TC ([…], time 28 day): 54.8 mg/dL
TG ([…], time 28 day): 57.8 mg/dL
TP ([…], time 28 day): 6.2 g/dL
gamma-GTP ([…], time 28 day): 1.5 IU/L
